Assay results as given in publication PMC2644304 (Nature chemical biology, 2009).

Biological target: AcsD (Dickeya chrysanthemi, UniProt Q93AT8)
Test: X-ray crystal structure of the complex
Type: binding
Conditions: co-crystal with sulfate and citrate; ATP site

Compound: Nc1ncnc2c1ncn2[C@@H]1O[C@H](CO)[C@@H](O)[C@H]1O [adenosine]
- X-ray crystal structure of the complex: adenosine binds in the same pocket as seen in the ATP structure
